Data taken from US20100173888A1 (Pfizer Inc, priority 2008, published 2010).

Each compound was assayed against human recombinant H-PGDS (Homo sapiens, UniProt O60760) (assay: Slightly modified fluorescence intensity h-PGDS TBA enzyme assay (1:40,000 enzyme, 40 second reaction, 1/2 log dilutions, top concentration typically 10 μM)). Settings: slightly modified assay: 1:40,000 human recombinant H-PGDS.
Type: biochemical
Procedure: Fluoresecence Intensity h-PGDSTBA Enzyme Assay
Prostaglandin D Synthase (PGDS) converts the substrate prostaglandin H2 (PGH2) to prostaglandin D2. The depletion of PGH2 was measured via an Fe(II) reduction of the remaining PGH2 to malondialdehyde (MDA) and 12-HHT. The enzyme assay is based on the quantitative formation of a fluorescent complex from the non-fluorescent compounds MDA and 2-thiobarbituric acid (TBA), substantially as described in U.S. patent application publication US-2004/152148 by Lombardt.
Examples 6-8, 11a-16, 23, 26-47, 49-103, 105-113, 115-118 and 126-128 were tested in a slightly modified assay: The enzyme assay (30 μls during biological process) contained 100 mM Trizma pH 8.0, 100 μM MgCl2, 0.1 mg/ml IgG Rabbit serum, 5.0 μM PGH2 (Cayman; ethanol solution, #17020), 2.5 mM L-Glutathione (Sigma; reduced form #G4251), 1:40,000 human recombinant H-PGDS (from 1 mg/ml), 0.5% DMSO and inhibitor (varying concentration). 3 μls of diluted inhibitor (dissolved in DMSO) was plated into a 384-well assay plate followed by a 24 μl addition of an enzyme solution containing h-PGDS, Trizma, MgCl2, IgG and L-Glutathione. After pre-incubation of inhibitor and enzyme solution for 10 minutes at room temperature, the reaction was initiated with a 3 μl addition of substrate solution in 10 mM HCl. The reaction was terminated after 40 second by the addition of 3 μl stop buffer containing FeCl2 and citric acid. After addition of 45 μls of TBA plates were heated for one hour in a 70° C. oven. Plates were cooled at room temperature overnight and read on a plate reader the next day with excitation @ 530 nm and emission @ 560 nm. IC50' s of inhibitors were calculated with a 4-parameter fit using 11 inhibitor concentrations in duplicate with ½ log serial dilutions. Controls on each plate included no inhibitor (zero % effect) and an inhibitor 500-fold in excess of its' IC50 (100% effect). The highest inhibitor concentration tested was typically 10 μM.

Chain of human recombinant H-PGDS (O60760 whole entry): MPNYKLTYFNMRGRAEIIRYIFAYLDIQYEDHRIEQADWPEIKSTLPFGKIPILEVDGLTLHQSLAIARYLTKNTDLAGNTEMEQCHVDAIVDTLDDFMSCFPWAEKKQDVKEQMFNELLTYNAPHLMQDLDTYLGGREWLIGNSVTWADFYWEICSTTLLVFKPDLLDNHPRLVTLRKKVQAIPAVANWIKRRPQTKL

Structure (SMILES)	IC50
O=C(N[C@@H]1CCCC[C@@H]1O)c1ccc(-c2cccc(F)c2)nc1 (relative stereo) [Example 23]	17.4 nM
O=C(N[C@@H]1CCC[C@H](O)C1)c1ccc(-c2cccc(F)c2)nc1 (relative stereo) [Example 26, 6-(3-Fluorophenyl)-N-[cis-3-hydroxycyclohexyl]nicotinamide]	18.2 nM
O=C(N[C@H]1CCC[C@@H](C(=O)NCc2ccccc2)C1)c1ccc(-c2cccc(F)c2)nc1 (relative stereo) [Example 30, N-[cis-3-(Benzylcarbamoyl)cyclohexyl]-6-(3-fluorophenyl)nicotinamide]	25.6 nM
O=C(N[C@H]1CCC[C@@H](C(=O)N2CCOCC2)C1)c1ccc(-c2cccc(F)c2)nc1 (relative stereo) [Example 36, 6-(3-Fluorophenyl)-N-[cis-3-(morpholin-4-ylcarbonyl)cyclohexyl]nicotinamide]	8.34 nM
CNCCN(C)C(=O)[C@@H]1CCC[C@H](NC(=O)c2ccc(-c3cccc(F)c3)nc2)C1 (relative stereo) [Example 37, 6-(3-Fluorophenyl)-N-[cis-3-{methyl[2-(methylamino)ethyl]carbamoyl}cyclohexyl]nicotinamide]	25.4 nM
CN(Cc1ccccc1)C(=O)[C@@H]1CCC[C@H](NC(=O)c2ccc(-c3cccc(F)c3)nc2)C1 (relative stereo) [Example 39, N-{cis-3-[Benzyl(methyl)carbamoyl]cyclohexyl}-6-(3-fluorophenyl)nicotinamide]	4.26 nM
O=C(N[C@H]1CCC[C@@H](C(=O)N2CCN(C3CC3)CC2)C1)c1ccc(-c2cccc(F)c2)nc1 (relative stereo) [Example 43, N-{cis-3-[(4-Cyclopropylpiperazin-1-yl)carbonyl]cyclohexyl}-6-(3-fluorophenyl)nicotinamide]	14.4 nM
O=C(NC1CCC(N2CCOCC2)CC1)c1ccc(-c2cccc(F)c2)nc1 (single isomer, unassigned) [Example 49, 6-(3-Fluorophenyl)-N-(4-morpholin-4-ylcyclohexyl)nicotinamide]	69.2 nM
O=C(NC1CCC(N2CCOCC2)CC1)c1ccc(-c2cccc(F)c2)nc1 (single isomer, unassigned) [Example 50, 6-(3-Fluorophenyl)-N-(4-morpholin-4-ylcyclohexyl)nicotinamide]	5.76 nM
CN1CCN(C2CCC(NC(=O)c3ccc(-c4cccc(F)c4)nc3)CC2)CC1 (single isomer, unassigned) [Example 51, 6-(3-Fluorophenyl)-N-[-4-(4-methylpiperazin-1-yl)cyclohexyl]nicotinamide]	172 nM
CN1CCN(C2CCC(NC(=O)c3ccc(-c4cccc(F)c4)nc3)CC2)CC1 (single isomer, unassigned) [Example 52, 6-(3-Fluorophenyl)-N-[-4-(4-methylpiperazin-1-yl)cyclohexyl]nicotinamide]	39.1 nM
COCCNC1CCC(NC(=O)c2ccc(-c3cccc(F)c3)nc2)CC1 (single isomer, unassigned) [Example 54, 6-(3-Fluorophenyl)-N-{4-[(2-methoxyethyl)amino]cyclohexyl}nicotinamide]	87.2 nM
COCCNC1CCC(NC(=O)c2ccc(-c3cccc(F)c3)nc2)CC1 (single isomer, unassigned) [Example 55, 6-(3-Fluorophenyl)-N-{4-[(2-methoxyethyl)amino]cyclohexyl}nicotinamide]	18.5 nM
O=C(NC1CCC(NC2CCOC2)CC1)c1ccc(-c2cccc(F)c2)nc1 (single isomer, unassigned) [Example 56, 6-(3-Fluorophenyl)-N-[-4-(tetrahydrofuran-3-ylamino)cyclohexyl]nicotinamide]	30.6 nM
O=C(NC1CCC(NC2CCOC2)CC1)c1ccc(-c2cccc(F)c2)nc1 (single isomer, unassigned) [Example 57, 6-(3-Fluorophenyl)-N-[-4-(tetrahydrofuran-3-ylamino)cyclohexyl]nicotinamide]	32 nM

Further lines, results first:

IC50	Structure (SMILES)
7.18 nM	CCN1CCN(C(=O)[C@H]2CCC[C@@H](NC(=O)c3ccc(-c4cccc(F)c4)nc3)C2)CC1 (racemic) [Example 41, N-{cis-3-[(4-Ethylpiperazin-1-yl)carbonyl]cyclohexyl}-6-(3-fluorophenyl)nicotinamide]
14.2 nM	O=C(N[C@@H]1CCC[C@H](C(=O)O)C1)c1ccc(-c2cccc(F)c2)nc1 (relative stereo) [Example 27, cis-3-({[6-(3-Fluorophenyl)pyridin-3-yl]carbonyl}amino)cyclohexanecarboxylic acid]
3.72 nM	O=C(N[C@H]1CCC[C@@H](C(=O)N2CCC(O)CC2)C1)c1ccc(-c2cccc(F)c2)nc1 (relative stereo) [Example 28, 6-(3-Fluorophenyl)-N-{cis-3-[(4-hydroxypiperidin-1-yl)carbonyl]cyclohexyl}nicotinamide]
5.02 nM	O=C(N[C@H]1CCC[C@@H](C(=O)N2CCCC2)C1)c1ccc(-c2cccc(F)c2)nc1 (relative stereo) [Example 29, 6-(3-Fluorophenyl)-N-[cis-3-(pyrrolidin-1-ylcarbonyl)cyclohexyl]nicotinamide]
10.8 nM	CN(C)C(=O)[C@H]1CCC[C@@H](NC(=O)c2ccc(-c3cccc(F)c3)nc2)C1 (relative stereo) [Example 31, N-[cis-3-(Dimethyicarbamoyl)cyclohexyl]-6-(3-fluorophenyl)nicotinamide]
37.9 nM	CCN(C)C(=O)[C@@H]1CCC[C@H](NC(=O)c2ccc(-c3cccc(F)c3)nc2)C1 (relative stereo) [Example 32, N-{cis-3-[Ethyl(methyl)carbamoyl]cyclohexyl}-6-(3-fluorophenyl)nicotinamide]
10 nM	O=C(N[C@H]1CCC[C@@H](C(=O)NC2CCCC2)C1)c1ccc(-c2cccc(F)c2)nc1 (relative stereo) [Example 33, N-[cis-3-(Cyclopentylcarbamoyl)cyclohexyl]-6-(3-fluorophenyl)nicotinamide]
8.32 nM	CC(C)NC(=O)[C@@H]1CCC[C@H](NC(=O)c2ccc(-c3cccc(F)c3)nc2)C1 (relative stereo) [Example 34, 6-(3-Fluorophenyl)-N-[cis-3-(isopropylcarbamoyl)cyclohexyl]nicotinamide]
8.29 nM	CN1CCN(C(=O)[C@@H]2CCC[C@H](NC(=O)c3ccc(-c4cccc(F)c4)nc3)C2)CC1 (relative stereo) [Example 35, 6-(3-Fluorophenyl)-N-{cis-3-[(4-methylpiperazin-1-yl)carbonyl]cyclohexyl}nicotinamide]
8.43 nM	CC(C)(C)NC(=O)[C@@H]1CCC[C@H](NC(=O)c2ccc(-c3cccc(F)c3)nc2)C1 (relative stereo) [Example 38, N-[cis-3-(tert-Butylcarbamoyl)cyclohexyl]-6-(3-fluorophenyl)nicotinamide]
9 nM	CCN(CC)C(=O)[C@@H]1CCC[C@H](NC(=O)c2ccc(-c3cccc(F)c3)nc2)C1 (relative stereo) [Example 40, N-[cis-3-(Diethylcarbamoyl)cyclohexyl]-6-(3-fluorophenyl)nicotinamide]
10.2 nM	O=C(N[C@H]1CCC[C@@H](C(=O)N2CCNCC2)C1)c1ccc(-c2cccc(F)c2)nc1 (relative stereo) [Example 42, 6-(3-Fluorophenyl)-N-[cis-3-(piperazin-1-ylcarbonyl)cyclohexyl]nicotinamide]
9.3 nM	O=C(N[C@H]1CCC[C@@H](C(=O)NCCCO)C1)c1ccc(-c2cccc(F)c2)nc1 (relative stereo) [Example 64E, 6-(3-fluorophenyl)-N-{cis-3-[(3-hydroxypropyl)carbamoyl]cyclohexyl}nicotinamide]
16.8 nM	CN(C)CCCNC(=O)[C@@H]1CCC[C@H](NC(=O)c2ccc(-c3cccc(F)c3)nc2)C1 (relative stereo) [Example 64F, N-[cis-3-{[3-(dimethylamino)propyl]carbamoyl}cyclohexyl]-6-(3-fluorophenyl)nicotinamide]
11.1 nM	O=C(N[C@H]1CCC[C@@H](C(=O)NCCN2CCCCC2)C1)c1ccc(-c2cccc(F)c2)nc1 (relative stereo) [Example 64I, 6-(3-fluorophenyl)-N-{cis-3-[(2-piperidin-1-ylethyl)carbamoyl]cyclohexyl}nicotinamide]
19.6 nM	CCN1CCC(CNC(=O)[C@@H]2CCC[C@H](NC(=O)c3ccc(-c4cccc(F)c4)nc3)C2)C1 (relative stereo) [Example 64J, N-[cis-3-{[(1-ethylpyrrolidin-3-yl)methyl]carbamoyl}cyclohexyl]-6-(3-fluorophenyl)nicotinamide]
509 nM	CCN1CCC(NC(=O)[C@@H]2CCC[C@H](NC(=O)c3ccc(-c4cccc(F)c4)nc3)C2)CC1 (relative stereo) [Example 64M, N-{cis-3-[(1-ethylpiperidin-4-yl)carbamoyl]cyclohexyl}-6-(3-fluorophenyl)nicotinamide]
